Data as given in US8993254B2, “Methods for evaluating risk of mother's milk or food inducing an onset of atopic dermatitis, and mother's milk or food with reduced risk of inducing an onset of atopic dermatitis” (Saitama Medical University, priority 2009, dated 2015).

Columns and labels:
[1] = tested on: THP-1 cells; assay: Measurement of intracellular cAMP concentration in PMA-treated THP-1 cells; assay type: cell-based; details: THP-1 cells treated with PMA, co-incubated with 10 to 30 μg/ml (13 to 39 μM) of coenzyme A
Protocol: In a humid incubator under conditions of 37° C. and 5% CO2, THP-1 cells were cultured in an RPMI1640 medium supplemented with 10% fetal bovine serum, 1% penicillin and streptomycin, and 1% L-glutamine. The THP-1 cells were exposed to 50 ng/ml of PMA (phorbol 12-myristate 13-acetate) for 48 hours, followed by washing. Then, the cells were cultured at 37° C. in the presence of 1 mM 3-isobutyl-1-methyl-xanthine. After 10 minutes, the cells were stimulated with 30% mother's milk (AD: n=55, non-AD: n=55) for 10 minutes, and lysed with cell lysis buffer (Molecular Devices). In some experiments, THP-1 cells treated with 50 ng/ml of PMA for 48 hours were exposed to 10 μM prostaglandin E2 (PGE2). The intracellular cAMP level was measured using CatchPoint™ cyclicAMP fluorescent assay kit (Molecular Devices LLC) in accordance with the maker instruction. In some experiments, delta (Δ)-cAMP was calculated by subtracting the cAMP concentration in THP-1 stimulated with PMA without adjuvant stimulation from the cAMP concentration in THP-1 stimulated with PMA with adjuvant stimulation.

[2] = tested on: Human monocyte-derived dendritic cells (Mo-DCs); assay: Analysis of T cell-differentiation using dendritic cells (mixed lymphocyte reaction, IFNγ and IL-5 ELISA); assay type: cell-based; details: Mo-DCs pretreated with 1 μg/ml of coenzyme A (FIG. 3B)
Protocol: Human Mo-DCs and CD45RA-positive naive T cells (purity of more than 99%) were prepared according to the previous report (Takagi, R. et al., J Immunol 181: 186-189, 2008).
The immature Mo-DCs were stimulated with 1 to 10% of a liquid fraction of mother's milk or 0 to 10 μg/ml of coenzyme A. Two days after culturing with the liquid fraction or coenzyme A, to induce a mixed lymphocyte reaction (MLR), the cell component was further cultured together with HLA-DR-nonshared allogenic CD4-positive naive T cells in an RPMI1640 medium supplemented with 10% human serum for 6 to 8 days. Then, the T cells were restimulated with an anti-CD3 antibody and an anti-CD28 antibody (BD Pharmingen Inc.). After 48 hours, the culture supernatant was collected to analyze IFNγ and IL-5 by ELISA using IFNγ and IL-5 ELISA kits (R&D systems, Inc.).

[3] = tested on: SJL/J mice; assay: Mixed lymphocyte reaction using CD3ε-negative cells harvested from mice to which coenzyme A had been orally administered; assay type: in vivo
Protocol: SJL/J mice (H-2^s) and Nc/Nga mice (non H-2^s) were purchased from Charles River Inc. and Japan SLC, Inc., respectively. 50 μg/ml of coenzyme A was orally administered to the SJL/J mice. Two days later, CD3ε-negative cells were obtained from mesenteric lymph node cells using “[…]” (Miltenyi Biotec Inc.). On the same day, CD62L-positive naive CD4-positive T cells were obtained from the spleens of the Nc/Nga mice using “CD4^+ T cell isolation kit” and “CD62L^+ T cell isolation kit” (Miltenyi Biotec Inc.). Then, 1×10^4 CD3ε-negative cells and 1×10^5 allogenic CD62L-positive naive CD4-positive T cells were co-cultured in a 96-well flat-bottomed culture plate. A mixed lymphocyte reaction (MLR) was induced in an RPMI1640 medium supplemented with 10% FCS for 7 days. Next, the T cells were restimulated with an anti-CD3 antibody and an anti-CD28 antibody (Biolegends, Inc.). The culture supernatant were harvested 16 hours later, and analyzed for IFNγ, IL-4, and
IL-5 using IFNγ, IL-4 and IL-5 ELISA kits (R&D systems, Inc.).
Coenzyme A-containing drinking water (10 to 20 μg/kg/day) was orally administered to mice. […] cells were isolated from the mesenteric lymph node 2 days after the coenzyme A administration, and co-cultured with allogenic CD62L-positive naive CD4-positive T cells.

[4] = oral, drinking water 10 to 20 μg/kg/day, mesenteric lymph node cells isolated 2 days after administration (FIG. 4A)
[5] = treated mice, oral 10 to 20 μg/kg/day (FIG. 4B)

## CC(C)(COP(=O)(O)OP(=O)(O)OC[C@H]1O[C@@H](n2cnc3c(N)ncnc32)[C@H](O)[C@@H]1OP(=O)(O)O)[C@@H](O)C(=O)NCCC(=O)NCCS [coenzyme A]
[1]
  intracellular cAMP: elevated
[2]
  differentiation of allogenic naive CD4-positive T cells into Th2 cells: differentiated into Th2 cells
[3]; [4]
  IFNγ production in T cells (MLR): No statistically significant difference
  IL-4 production in T cells (MLR): significantly induced
  IL-5 production in T cells (MLR): significantly induced
[3]; [5]
  IL-4/IFNγ ratio: significantly high
  IL-5/IFN ratio: significantly high
